Laboratory results reported in US6600072B2, “Substituted 1-naphthoylguanidines, process for their preparation, their use as a medicament or diagnostic , and medicament containing them” (Aventis Pharma Deutschland GmbH, priority 1996, dated 2003).
Where a name gives a salt, the structure may show the parent alone.

Tested on: not given
Experiment: not given
Conditions: not given
With `COc1ccc2c(C(=O)N=C(N)N)cccc2c1C(F)(F)F` (as salt: hydrochloride) [Example 3, 6-Methoxy-5-trifluoromethyl-1-naphthoyl-guanidine Hydrochloride] the melting point was > 260 °C.
With `COc1ccc2c(C(=O)N=C(N)N)cccc2c1` (as salt: hydrochloride) [Example 4, 6-Methoxy-1-naphthoylguanidine Hydrochloride] the melting point was 235 to 236 °C.
With `NC(N)=NC(=O)c1ccc(C(=O)N=C(N)N)c2ccccc12` [Example 23, Naphthaline-1,4-dicarboxylic Acid Diguanidide] the melting point was 270 °C (dec.).
`Cl.NC(N)=NC(=O)c1ccc(F)c2ccccc12` [Example 1, 4-Fluoro-1-naphthoylguanidine Hydrochloride] showed a melting point of 245 °C.
In the case of `NC(N)=NC(=O)c1c(OCc2ccc(CN3CCCCC3)cc2)ccc2ccccc12` [Example 10, 2-[4-(1-Piperidinomethyl)benzyloxy]-1-naphthoylguanidine], the melting point is reported as 205 to 210 °C.
Work on `NC(N)=NC(=O)c1c(OCc2ccc(Br)cc2)ccc2ccccc12` (as salt: hydrochloride) (hydrate or solvate) [Example 9, 2-(4-Bromobenzyloxy)naphthoylguanidine Hydrochloride Hemihydrate] yielded a melting point of 198 to 202 °C.

Biological target: T1, Na^+/H^+ exchanger of rabbit erythrocytes (Oryctolagus cuniculus, UniProt P23791)
T1 construct: determine the Na^+ influx into the erythrocytes via Na^+/H^+ exchange by flame photometry; endogenous in cells; host or cells: erythrocytes in whole blood of cholesterol-fed White New Zealand rabbits
T1 sequence (P23791 whole entry): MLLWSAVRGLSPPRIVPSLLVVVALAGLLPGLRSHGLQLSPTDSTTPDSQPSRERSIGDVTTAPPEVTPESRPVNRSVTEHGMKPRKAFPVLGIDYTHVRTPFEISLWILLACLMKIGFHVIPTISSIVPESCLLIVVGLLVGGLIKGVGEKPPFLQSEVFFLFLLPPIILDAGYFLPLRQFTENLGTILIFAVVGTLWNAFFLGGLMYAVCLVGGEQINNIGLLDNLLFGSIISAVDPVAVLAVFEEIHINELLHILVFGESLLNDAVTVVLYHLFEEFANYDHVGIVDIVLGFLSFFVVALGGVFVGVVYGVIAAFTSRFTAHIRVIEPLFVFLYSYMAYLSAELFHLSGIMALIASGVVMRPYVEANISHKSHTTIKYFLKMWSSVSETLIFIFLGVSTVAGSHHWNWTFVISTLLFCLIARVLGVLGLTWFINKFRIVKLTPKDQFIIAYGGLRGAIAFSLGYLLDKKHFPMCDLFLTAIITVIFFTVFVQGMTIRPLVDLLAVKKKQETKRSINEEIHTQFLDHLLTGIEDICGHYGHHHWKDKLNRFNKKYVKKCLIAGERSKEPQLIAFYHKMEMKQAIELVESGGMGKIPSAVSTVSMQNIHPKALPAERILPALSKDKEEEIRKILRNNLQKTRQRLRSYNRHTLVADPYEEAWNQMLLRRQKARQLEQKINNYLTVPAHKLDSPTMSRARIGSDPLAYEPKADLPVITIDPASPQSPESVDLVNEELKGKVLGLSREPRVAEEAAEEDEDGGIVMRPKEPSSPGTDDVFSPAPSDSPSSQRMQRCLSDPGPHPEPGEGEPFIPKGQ
Experiment: Inhibition of the Na+/H+ exchanger of rabbit erythrocytes (amiloride-sensitive sodium influx, flame photometry)
Type: cell-based
Conditions: pH 7.4, 37° C., hyperosmolar salt-sucrose medium
Description: Inhibition of the Na^+/H^+ exchanger of rabbit erythrocytes:
White New Zealand rabbits (Ivanovas) received a standard diet containing 2% cholesterol for six weeks in order to activate Na^+/H^+ exchange and thus to be able to determine the Na^+ influx into the erythrocytes via Na^+/H^+ exchange by flame photometry. The blood was taken from the auricular arteries and rendered uncoagulable by means of 25 lU/ml of potassium heparin. A part of each sample was used for the duplicate determination of the hematocrit by centrifugation. Aliquots of 100 μl in each case were used to measure the Na^+ starting content of the erythrocytes.
In order to determine the amiloride-sensitive sodium influx, 100 μl of each blood sample were incubated at pH 7.4 and 37° C. in 5 ml in each case of a hyperosmolar salt-sucrose medium (mmol/l: 140 NaCl, 3 KCl, 150 sucrose, 0.1 ouabain, 20 trishydroxymethylaminomethane). The erythrocytes were then washed three times with ice-cold MgCl2-ouabain solution (mmol/l: 112 MgCl2, 0.1 ouabain) and hemolyzed in 2.0 ml of distilled water. The intracellular sodium content was determined by flame photometry.
The net Na^+ influx was calculated from the difference between sodium starting values and the sodium content of the erythrocytes after incubation. The amiloride-inhibitable sodium influx ensued from the difference in the sodium content of the erythrocytes after incubation with and without amiloride 3×10^−4 mol/l. The sodium influx was also determined in this manner in the case of the compounds according to the invention.
`CCCCOc1ccc2ccccc2c1C(=O)NC(=N)N` [Example 14, 2-Butyloxy-1-naphthoylguanidine Hydrochloride] showed an IC50 of 1 µM.
In the case of `CC(C)Oc1ccc2ccccc2c1C(=O)NC(=N)N` [Example 18, 2-Isopropyloxy-1-naphthoylguanidine Hydrochloride], the IC50 is reported as 2 µM.
`Cl.NC(N)=NC(=O)c1ccc(F)c2ccccc12` [Example 1, 4-Fluoro-1-naphthoylguanidine Hydrochloride] gave an IC50 of 1 to 2 µM.
For `COc1ccc2ccccc2c1C(=O)NC(=N)N` [Example 8, 2-Methoxy-1-naphthoylguanidine Hydrochloride], the IC50 was 0.5 µM.
For `N=C(N)NC(=O)c1cccc2ccccc12` [Example 6, 1-Naphthoylguanidine Hydrochloride], the IC50 was 10 µM.

Tested on: rat hearts
Experiment: not given
Conditions: isolated rat hearts; cited from earlier work
In the case of `CCN(c1nc(N)c(C(=O)NC(=N)N)nc1Cl)C(C)C` [ethylisopropylamiloride, Ethylisopropylamiloride], the “potency relative to amiloride in the ventricular fibrillation model” value is given as “even more potent than amiloride”.
In the case of `N=C(N)NC(=O)c1nc(Cl)c(N)nc1N` [amiloride, Amiloride], the “suppression of artificially induced ventricular fibrillation” value is listed as “suppressed completely”.
